Measured values as given in DBAASP.
Converted amounts (≈) assume the structure as drawn. “And” between values parts separate entries of the source, which are not always exact repeats. Equal entries are not always repeated. One block for each molecule: values may come before it.

Key:
Assay in all cases: ≥ marks a high value that may be exact or a test limit, other limits are often not marked, values filed in µg/mL are converted to µM
[1] = tested on: Salmonella enterica subsp. enterica serovar Enteritidis ATCC 13076
[2] = tested on: Pseudomonas putida ATCC 17426
[3] = tested on: Candida albicans ATCC 10231
[4] = tested on: Bacillus subtilis ATCC 62037
[5] = tested on: Streptococcus mutans ATCC 25175
[6] = tested on: Escherichia coli ATCC 27325
[7] = tested on: Saccharomyces cerevisiae ATCC 44774
[8] = tested on: Staphylococcus aureus ATCC 15752
[9] = tested on: Cryptococcus neoformans ATCC 34881
[10] = tested on: Vibrio harveyi
[11] = tested on: Aeromonas hydrophila
[12] = tested on: Staphylococcus aureus NCTC 12493
[13] = tested on: Enterococcus faecalis NCTC 12697
[14] = tested on: Escherichia coli NCTC 10418
[15] = tested on: Klebsiella pneumoniae ATCC 43816
[16] = tested on: Candida albicans NCYC 1467
[17] = tested on: Staphylococcus aureus NCTC 10788
[18] = tested on: Pseudomonas aeruginosa ATCC 27853
[19] = tested on: Staphylococcus aureus ATCC BAA-1556
[20] = tested on: Salmonella enterica subsp. enterica serovar Enteritidis
[21] = tested on: Micrococcus luteus A270
[22] = tested on: Escherichia coli
[23] = tested on: Listeria innocua
[24] = tested on: Escherichia coli BW25113
[25] = tested on: Staphylococcus aureus
[26] = tested on: Micrococcus luteus

MIC [1]: 0.442 µM (≈ 1 µg/mL)
MIC [2]: 0.442 µM (≈ 1 µg/mL)
MIC [3]: 0.221 µM (≈ 0.5 µg/mL)
MIC [4]: 0.442 µM (≈ 1 µg/mL)
MIC [5]: 0.442 µM (≈ 1 µg/mL)
MIC [6]: 0.442 µM (≈ 1 µg/mL)
MIC [7]: 0.221 µM (≈ 0.5 µg/mL)
MIC [8]: 0.884 µM (≈ 2 µg/mL)
MIC [9]: 0.221 µM (≈ 0.5 µg/mL)
SMILES: CC[C@H](C)[C@H](NC(=O)CNC(=O)[C@H](CCCCN)NC(=O)[C@H](CCCCN)NC(=O)[C@H](CCC(N)=O)NC(=O)[C@H](CC(C)C)NC(=O)[C@H](CCCN=C(N)N)NC(=O)[C@H](CC(C)C)NC(=O)[C@H](CC(C)C)NC(=O)[C@H](CCCN=C(N)N)NC(=O)[C@H](CCCN=C(N)N)NC(=O)[C@H](CC(C)C)NC(=O)[C@H](CC(C)C)NC(=O)[C@H](CCCN=C(N)N)NC(=O)[C@H](CCSC)NC(=O)[C@H](C)NC(=O)[C@H](CCCCN)NC(=O)[C@@H]1CCCN1C(=O)[C@H](C)N)C(=O)O [APKAMRLLRRLLRLQKKGI]

MIC [12]: 8 µM (≈ 15.6 µg/mL)
MIC [13]: ≥ 256 µM
MIC [14]: 16 µM (≈ 31.2 µg/mL)
MIC [15]: ≥ 32 µM
MIC [16]: 8 µM (≈ 15.6 µg/mL)
MIC [17]: 8 µM (≈ 15.6 µg/mL)
MIC [18]: 64 µM (≈ 125 µg/mL)
SMILES: CC[C@H](C)[C@@H]1NC(=O)[C@H](C)NC(=O)[C@@H](NC(=O)[C@H](Cc2ccccc2)NC(=O)[C@@H](NC(=O)[C@H](CCCCN)NC(=O)[C@H](Cc2c[nH]c3ccccc23)NC(=O)[C@@H]2CCCN2C(=O)[C@H](CC(C)C)NC(=O)[C@H](Cc2ccccc2)NC(=O)[C@H](CCCCN)NC(=O)[C@@H](N)CCCCN)[C@@H](C)CC)CSSC[C@@H](C(=O)O)NC(=O)[C@H](CCCCN)NC(=O)[C@H](CCCCN)NC(=O)[C@H]([C@@H](C)O)NC1=O [KKFLPWKIFCAITKKC]

MIC [19]: ≥ 100 µM
SMILES: CC(C)C[C@H](NC(=O)[C@H](CC(C)C)NC(=O)[C@H](CC(C)C)NC(=O)[C@H](CCCCN)NC(=O)[C@H](CC(C)C)NC(=O)[C@@H](N)CC(C)C)C(=O)N[C@@H](CCCCN)C(N)=O [LLKLLLK]

MIC [24]: 8 µM (≈ 19 µg/mL)
SMILES: CC[C@H](C)[C@H](NC(=O)[C@@H]1CCCN1C(=O)[C@H](CCCN=C(N)N)NC(=O)[C@H](CCCN=C(N)N)NC(=O)[C@H](Cc1ccccc1)NC(=O)[C@@H](N)CCCN=C(N)N)C(=O)N[C@@H](CCCN=C(N)N)C(=O)N[C@@H](CCCN=C(N)N)C(=O)N[C@@H](CCCN=C(N)N)C(=O)N1CCC[C@H]1C(=O)N[C@H](C(=O)N[C@@H](CCCN=C(N)N)C(=O)N1CCC[C@H]1C(=O)N1CCC[C@H]1C(=O)N[C@@H](Cc1c[nH]c2ccccc12)C(=O)N[C@@H](Cc1ccc(O)cc1)C(=O)N[C@@H](CCCN=C(N)N)C(=O)O)[C@@H](C)CC [RFRRPIRRRPIRPPWYR]

MIC [19]: ≥ 100 µM
SMILES: CC[C@H](C)[C@H](NC(=O)[C@H](Cc1c[nH]c2ccccc12)NC(=O)[C@H](CCCN=C(N)N)NC(=O)[C@@H](N)CCCN=C(N)N)C(=O)N[C@@H](CCCN=C(N)N)C(=O)N[C@@H](Cc1c[nH]c2ccccc12)C(=O)N[C@@H](CC(C)C)C(N)=O [RRWIRWL]

MIC [24]: 8 µM (≈ 18.6 µg/mL)
SMILES: CC[C@H](C)[C@H](NC(=O)[C@@H]1CCCN1C(=O)[C@H](Cc1c[nH]c2ccccc12)NC(=O)[C@H](CCCN=C(N)N)NC(=O)[C@H](Cc1c[nH]c2ccccc12)NC(=O)[C@@H](N)CCCN=C(N)N)C(=O)N[C@@H](CCCN=C(N)N)C(=O)N[C@@H](CCCN=C(N)N)C(=O)N1CCC[C@H]1C(=O)N1CCC[C@H]1C(=O)N[C@H](C(=O)N[C@@H](CCCN=C(N)N)C(=O)N1CCC[C@H]1C(=O)N1CCC[C@H]1C(=O)N[C@@H](Cc1c[nH]c2ccccc12)C(=O)N[C@@H](Cc1ccc(O)cc1)C(=O)N1CCC[C@H]1C(=O)O)[C@@H](C)CC [RWRWPIRRPPIRPPWYP]

Continued, molecule first:

SMILES: CC[C@H](C)[C@H](NC(=O)[C@H](C)NC(=O)[C@H](CCCN=C(N)N)NC(=O)[C@H](Cc1cnc[nH]1)NC(=O)[C@@H](NC(=O)[C@H](C)NC(=O)[C@H](CCCN=C(N)N)NC(=O)[C@@H](NC(=O)CNC(=O)[C@H](Cc1cnc[nH]1)NC(=O)[C@H](CO)NC(=O)[C@@H](NC(=O)[C@H](Cc1c[nH]c2ccccc12)NC(=O)CNC(=O)[C@@H](NC(=O)[C@@H](NC(=O)[C@H](C)NC(=O)[C@H](Cc1cnc[nH]1)NC(=O)[C@@H](NC(=O)[C@@H](N)Cc1ccccc1)[C@@H](C)CC)[C@@H](C)CC)[C@@H](C)CC)[C@@H](C)CC)C(C)C)[C@@H](C)CC)C(=O)N[C@@H](Cc1cnc[nH]1)C(N)=O [FIHAIIGWISHGVRAIHRAIH]
MIC [10]: ≥ 32 µM
MIC [11]: 16 µM (≈ 38.5 µg/mL)

SMILES: CC[C@H](C)[C@H](NC(=O)[C@H](C)NC(=O)[C@H](CO)NC(=O)[C@@H](NC(=O)[C@@H](NC(=O)[C@H](CCCCN)NC(=O)[C@@H]1CCCN1C(=O)[C@@H](NC(=O)[C@H](CC(C)C)NC(=O)[C@H](CO)NC(=O)[C@H](CC(C)C)NC(=O)[C@@H](N)Cc1ccccc1)[C@@H](C)CC)[C@@H](C)CC)[C@@H](C)CC)C(=O)N[C@@H](CO)C(=O)N[C@@H](C)C(=O)N[C@@H](CC(C)C)C(=O)N[C@H](C(=O)N[C@@H](CCCCN)C(=O)N[C@@H](Cc1cnc[nH]1)C(=O)N[C@@H](Cc1ccccc1)C(N)=O)[C@@H](C)CC [FLSLIPKIISAISALIKHF]
MIC [12]: ≥ 64 µM
MIC [13]: 16 µM (≈ 33.8 µg/mL)
MIC [14]: ≥ 512 µM
MIC [15]: ≥ 512 µM
MIC [16]: ≥ 32 µM
MIC [17]: 2 µM (≈ 4.22 µg/mL)
MIC [18]: > 512 µM

SMILES: CC(C)C[C@H](NC(=O)[C@H](CC(C)C)NC(=O)[C@H](CCCCN)NC(=O)[C@H](CC(C)C)NC(=O)[C@H](CC(C)C)NC(=O)[C@H](CC(C)C)NC(=O)[C@@H](N)CCCCN)C(N)=O [KLLLKLL]
MIC [19]: ≥ 100 µM

SMILES: CC(C)C[C@H](NC(=O)[C@H](CC(C)C)NC(=O)[C@H](CC(C)C)NC(=O)[C@H](CCCCN)NC(=O)[C@H](CC(C)C)NC(=O)[C@H](CCCCN)NC(=O)[C@H](CC(C)C)NC(=O)[C@H](CC(C)C)NC(=O)[C@@H](N)CC(C)C)C(N)=O [LLLKLKLLL]
MIC [19]: ≥ 100 µM

SMILES: CC(C)C[C@H](NC(=O)[C@H](C)NC(=O)[C@H](CC(N)=O)NC(=O)[C@H](C)NC(=O)[C@@H](NC(=O)CNC(=O)[C@H](C)NC(=O)[C@@H](NC(=O)[C@@H](NC(=O)[C@H](CCCCN)NC(=O)[C@H](CCC(N)=O)NC(=O)[C@H](Cc1ccccc1)NC(=O)[C@H](CC(=O)O)NC(=O)[C@H](C)NC(=O)[C@@H](N)CCC(N)=O)C(C)C)C(C)C)C(C)C)C(=O)N[C@@H](C)C(=O)N[C@@H](Cc1cnc[nH]1)C(=O)N[C@@H](CCCN=C(N)N)C(=O)N[C@@H](Cc1ccc(O)cc1)C(=O)N[C@@H](Cc1cnc[nH]1)C(=O)O [QADFQKVVAGVANALAHRYH]
MIC [20]: ≥ 35 µM
MIC [21]: ≥ 71 µM
MIC [22]: 71 µM (≈ 156 µg/mL)
MIC [23]: ≥ 71 µM

SMILES: CC[C@H](C)[C@H](NC(=O)[C@@H]1CCCN1C(=O)[C@H](CCCN=C(N)N)NC(=O)[C@H](CCCN=C(N)N)NC(=O)[C@H](Cc1ccccc1)NC(=O)[C@@H](N)CCCN=C(N)N)C(=O)N[C@@H](CCCN=C(N)N)C(=O)N[C@@H](CCCN=C(N)N)C(=O)N1CCC[C@H]1C(=O)N1CCC[C@H]1C(=O)N[C@H](C(=O)N[C@@H](CCCN=C(N)N)C(=O)N1CCC[C@H]1C(=O)N1CCC[C@H]1C(=O)N[C@@H](Cc1c[nH]c2ccccc12)C(=O)N[C@@H](Cc1ccc(O)cc1)C(=O)N1CCC[C@H]1C(=O)O)[C@@H](C)CC [RFRRPIRRPPIRPPWYP]
MIC [24]: 12 µM (≈ 27.1 µg/mL)

SMILES: CC(C)C[C@H](NC(=O)[C@@H](NC(=O)[C@@H](NC(=O)[C@@H](N)CO)[C@@H](C)O)C(C)C)C(=O)N[C@H](C(=O)N[C@@H](CO)C(=O)N[C@@H](CCCCN)C(=O)N[C@@H](Cc1ccc(O)cc1)C(=O)N[C@@H](CCCN=C(N)N)C(=O)O)[C@@H](C)O [STVLTSKYR]
MIC [20]: 8 µM and 7.5 µM
MIC [21]: 15 µM (≈ 15.8 µg/mL)
MIC [25]: 2 µM (≈ 2.11 µg/mL)
MIC [22]: 8 µM (≈ 8.43 µg/mL)
MIC [23]: 2 µM (≈ 2.11 µg/mL)
MIC [26]: 15 µM (≈ 15.8 µg/mL)
